# ChEMBL document CHEMBL1201862, “PubChem BioAssay data set” (2004)
#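 Dose response: 5 concentrations. Exposure: 48 h. Format: 96-well plates. Endpoint: linear interpolation; highest concentration if not reached. GI50 = concentration required for 50% inhibition of growth.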 The source made the active and inactive calls. Cut-off read from the data, not from the text of the source: active = GI50 up to about 1.1 µM and inactive = higher.
# Experiments:
# Test in all cases: NCI tumour cell line growth inhibition, 48 h
# BT-549 = test system: BT-549
# M19-MEL = test system: M19-MEL
# DMS-114 = test system: DMS-114
# HOP-18 = test system: HOP-18
# SNB-78 = test system: SNB-78
# DLD-1 = test system: DLD-1
# XF498 = test system: XF498
# RXF 631 = test system: RXF 631
# LXFL 529 = test system: LXFL 529
smiles,measurement,setting,value
COC(=O)c1c(C)cccc1C1CN=NC12Cc1cc(C)c(C)cc1C2=O (stereo unspecified),GI50,BT-549,32.4 µM (inactive)
CCSc1nc2sc(C)c(C)c2c(=O)n1-c1ccc(C(=O)O)cc1,GI50,M19-MEL,60 µM (inactive)
same,GI50,DMS-114,76.9 µM (inactive)
same,GI50,HOP-18,10.2 µM (inactive)
same,GI50,SNB-78,94 µM (inactive)
same,GI50,DLD-1,43.2 µM (inactive)
same,GI50,XF498,75.7 µM (inactive)
Cc1cnc2ccc(C)c([N+](=O)[O-])c2c1NCCCN(C)C,GI50,M19-MEL,> 100 µM (inactive)
same,GI50,DMS-114,86.5 µM (inactive)
same,GI50,SNB-78,> 100 µM (inactive)
same,GI50,XF498,> 100 µM (inactive)
O=C(c1ccccc1)N1C2CCC1C(C(F)(F)F)=C2C(F)(F)F,GI50,RXF 631,> 100 µM (inactive)
same,GI50,M19-MEL,> 100 µM (inactive)
same,GI50,LXFL 529,> 100 µM (inactive)
same,GI50,DMS-114,> 100 µM (inactive)
same,GI50,HOP-18,> 100 µM (inactive)
same,GI50,SNB-78,> 100 µM (inactive)
same,GI50,DLD-1,> 100 µM (inactive)
O=C1CSC(/C=C/c2ccccc2)N1c1ccc(-n2c(-c3ccccc3)nc3ccccc3c2=O)cc1 (stereo unspecified),GI50,BT-549,> 100 µM (inactive)
C[C@@H](NC(=O)[C@@H]1C[C@]1(C)COC(=O)c1cc([N+](=O)[O-])cc([N+](=O)[O-])c1)c1cccc2ccccc12,GI50,BT-549,> 100 µM (inactive)
COc1cc(/C=[N+](\[O-])c2ccccc2Cl)ccc1OC(=S)S,GI50,BT-549,26.9 µM (inactive)
Cc1ccc(Nc2nc(C)c(C(/C=C/c3ccc(/C=C/C(=N/NC(=O)C[n+]4ccccc4)c4sc(Nc5ccc(C)cc5[N+](=O)[O-])nc4C)cc3)=N\NC(=O)C[n+]3ccccc3)s2)c([N+](=O)[O-])c1,GI50,RXF 631,> 100 µM (inactive)
same,GI50,M19-MEL,> 100 µM (inactive)
same,GI50,LXFL 529,95.7 µM (inactive)
same,GI50,DMS-114,92.9 µM (inactive)
same,GI50,HOP-18,7.96 µM (inactive)
same,GI50,SNB-78,91.2 µM (inactive)
same,GI50,DLD-1,71.3 µM (inactive)
CC(=O)/C=c1\[nH]/c(=C\C=C\c2ccccc2)c(=O)n1/C=C1\C(=O)Oc2ccccc2C1=O,GI50,BT-549,> 100 µM (inactive)
C=CC[C@H](C)CCC(=O)N1[C@H]2CC3CC[C@@]2(CS1(=O)=O)C3(C)C,GI50,BT-549,78.7 µM (inactive)
O=C(O)c1nc(-c2ccccn2)c(-c2ccccn2)nc1C(=O)O,GI50,BT-549,4.01 µM (inactive)
COc1ccc2c3c(c(C(=O)O)oc13)C(CCC(=O)O)CC2 (stereo unspecified),GI50,LXFL 529,> 100 µM (inactive)
same,GI50,DMS-114,> 100 µM (inactive)
same,GI50,HOP-18,> 100 µM (inactive)
same,GI50,SNB-78,> 100 µM (inactive)
same,GI50,DLD-1,> 100 µM (inactive)
same,GI50,XF498,> 100 µM (inactive)
COc1cc([C@@H]2c3cc4c(cc3[C@@H](NCc3ccc(C#N)cc3)C3COC(=O)[C@@H]32)OCO4)cc(OC)c1O (stereo partly specified),GI50,M19-MEL,1.82 µM (inactive)
same,GI50,LXFL 529,4.5 µM (inactive)
same,GI50,DMS-114,1.2 µM (inactive)
same,GI50,HOP-18,95.3 µM (inactive)
same,GI50,SNB-78,4.74 µM (inactive)
same,GI50,DLD-1,1.33 µM (inactive)
same,GI50,XF498,0.278 µM (active)
O=C(CCl)Nc1ccc(C(=O)N/N=C/c2ccc(Cl)cc2)cc1,GI50,BT-549,1.88 µM (inactive)
same,GI50,M19-MEL,12.8 µM (inactive)
same,GI50,LXFL 529,1.71 µM (inactive)
same,GI50,DMS-114,1.45 µM (inactive)
same,GI50,SNB-78,3.52 µM (inactive)
same,GI50,DLD-1,2.18 µM (inactive)
same,GI50,XF498,1.19 µM (inactive)
C[C@H]1[C@H](C)CC[C@]2(C)CC[C@]3(C)C(=C[C@@H](O)[C@@H]4[C@@]5(C)[C@H](O)[C@@H](O)[C@H](O)C(C)(C)[C@@H]5CC[C@]43C)[C@H]12,GI50,BT-549,> 100 µM (inactive)
COc1cc2c(cc1OCCCC(=O)Nc1cc(C(=O)Nc3cc(C(=O)Nc4cc(C(=O)NCCCN(C)C)n(C)n4)n(C)n3)n(C)n1)N=CC1CCCN1C2=O (stereo unspecified),GI50,BT-549,12.4 µM (inactive)
CN(C)C1(N(C)C)Oc2c(c(=O)n(C)c(=O)n2C)C(c2ccccc2Br)C1(F)F (stereo unspecified),GI50,BT-549,> 100 µM (inactive)
CC(C)c1cc(CN(C)C)c(O)c(C(C)(C)C)c1,GI50,BT-549,37.5 µM (inactive)
O=C(O)CSC(NC(=O)C(C(F)(F)F)C(F)(F)F)(C(F)(F)F)C(F)(F)F,GI50,BT-549,> 100 µM (inactive)
O=S(=O)(C1=CC(S(=O)(=O)c2ccccc2)COC1)c1ccccc1 (stereo unspecified),GI50,M19-MEL,> 100 µM (inactive)
same,GI50,LXFL 529,> 100 µM (inactive)
same,GI50,DMS-114,> 100 µM (inactive)
same,GI50,DLD-1,> 100 µM (inactive)
same,GI50,XF498,> 100 µM (inactive)
Cn1c(=O)c2nc(CCCCc3nc4ccccc4[nH]3)[nH]c2n(C)c1=O,GI50,BT-549,> 100 µM (inactive)
Cc1cn(CCCCOC(=O)NC(CCCNC(=N)N)C(=O)O)c(=O)[nH]c1=O (stereo unspecified),GI50,BT-549,> 100 µM (inactive)
CCC[C@H](C)[C@H]1NC(=O)[C@@H](NC(=O)[C@@H](CC(C)C)N(C)C(=O)C2CCCN2C(=O)[C@H](C)O)[C@@H](C)OC(=O)[C@H](CC(C)C)N(C)C(=O)[C@@H]2CCCN2C(=O)[C@H](CC(C)C)NC(=O)[C@@H](C)C(=O)[C@H](C(C)C)OC(=O)C[C@@H]1O (stereo partly specified),GI50,BT-549,< 0.0025 µM (active)
ON=C1CCCCC(=NO)CCCC1,GI50,BT-549,> 100 µM (inactive)
OC1CC2CCCN(CCc3c1[nH]c1ccccc31)C2 (stereo unspecified),GI50,BT-549,38.3 µM (inactive)
COc1ccc(OC)c(-c2cc(=O)c3c(OC)c(OC)c(OC)c(OC)c3o2)c1,GI50,BT-549,33.2 µM (inactive)
C[C@@H](O)C(=O)N1[C@@H]2CC3CC[C@]2(CS1(=O)=O)C3(C)C,GI50,BT-549,> 100 µM (inactive)
O=[N+]([O-])c1ccc(Cl)c(C2CC(c3cccc4ccccc34)=Nc3ccccc3[S+]2[O-])c1 (stereo unspecified),GI50,RXF 631,29.4 µM (inactive)
same,GI50,M19-MEL,20.6 µM (inactive)
same,GI50,LXFL 529,13.3 µM (inactive)
same,GI50,DMS-114,14.9 µM (inactive)
same,GI50,HOP-18,24.2 µM (inactive)
same,GI50,SNB-78,11.4 µM (inactive)
same,GI50,DLD-1,9.55 µM (inactive)
CN(C)CCn1c(=O)c2ccc(NCCCN(C)CCCNc3ccc4c(=O)n(CCN(C)C)c(=O)n5c6ccc(O)cc6c(=O)c3c45)c3c(=O)c4cc(O)ccc4n(c1=O)c23,GI50,BT-549,0.0692 µM (active)
